Results from patent US20220213052A1, “INHIBITORS OF RNA-BINDING PROTEINS, COMPOSITIONS THEREOF, AND THERAPEUTIC USES THEROF” (The University of North Carolina at Chapel Hill, priority 2019, published 2022).

How the values were obtained:
[1] = system: MDA-MB-231 mouse xenograft; test: MDA-MB-231 mouse xenograft model, KH-39 alone and with docetaxel; format: in vivo, mice; conditions: after three-week treatment; KH-39 i.p. 50 mg/kg 5 times per week; TXT i.v.; ***P<0.001, ****P<0.0001, n=12
Text: Cytotoxicity assays (as described earlier in this disclosure) for various cancer cell lines will also be performed utilizing concentrations of a compound of the present technology that are below the lethal threshold for the compound for the particular cancer (a “sub-lethal concentration”) in combination with a chemotherapeutic compound (e.g., docetaxel or doxorubicin) to illustrate compounds of the present technology sensitize cancer cell lines to chemotherapy. By way of illustration in an in vivo model, in vivo antitumor efficacy of KH-39 was examined in combination with docetaxel (a first-line chemotherapy for human breast cancer) in a MDA-MB-231 mouse xenograft model. For this, tumor-bearing female athymic mice were provided according to the protocols described earlier in the present disclosure and were randomized into four groups. One group of mice was treated with KH-39 (i.p. 50 mg/kg, 5 times per week), one group with docetaxel (TXT; i.v. at the dosages and time intervals indicated in FIG. 12), one group with a combination of KH-39 and TXT (KH-39 i.p. 50 mg/kg, 5 times per week and TXT i.v. at the dosages and time intervals indicated in FIG. 12), and one group of mice as the vehicle control. FIG. 12 illustrates the results, providing the tumor growth curves for each group.

PC3 cells = test: mRNA level of HuR target Msi2 after docetaxel treatment; format: cell-based
Text: FIGS. 1A-F provide the results of studies illustrating RNA-binding protein Hu antigen R (HuR) is involved in chemo/radiation-induced tumor response. […] HuR knock-down by siRNA sensitized cancer cells to X-ray radiation, with an enhancement ratio (ER) of 1.5 versus the negative control (NC) siRNA (FIG. 1F).

## CC(=O)O[C@@]12CO[C@@H]1C[C@H](O)[C@@]1(C)C(=O)[C@H](O)C3=C(C)[C@@H](OC(=O)[C@H](O)[C@@H](NC(=O)OC(C)(C)C)c4ccccc4)C[C@@](O)([C@@H](OC(=O)c4ccccc4)[C@H]21)C3(C)C [docetaxel, reference compound]
[1]
  relative tumor sizes versus control group: significantly smaller than those in control group
PC3 cells
  mRNA levels of HuR target Musashi 2 (Msi2): increased the mRNA levels of HuR target Musashi 2 (Msi2)
